Measurements reported in PubChem BioAssay (NCI).
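These data come from cells grown in 96-well plates and exposed to compound for 48 hours at five concentrations. GI50 marks 50% less growth. TGI denotes the concentration required for complete inhibition of growth.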

Key:
Experiment in all cases: NCI anticancer screen, dose series, 48 h
786-0 renal = test system: 786-0 renal
A549 NSCLC = test system: A549 NSCLC
ACHN renal = test system: ACHN renal
CAKI-1 renal = test system: CAKI-1 renal
CCRF-CEM leukemia = test system: CCRF-CEM leukemia
COLO 205 colon = test system: COLO 205 colon
HL-60(TB) leukemia = test system: HL-60(TB) leukemia
HOP-62 NSCLC = test system: HOP-62 NSCLC
HOP-92 NSCLC = test system: HOP-92 NSCLC
IGROV1 ovarian = test system: IGROV1 ovarian
K-562 leukemia = test system: K-562 leukemia
M14 melanoma = test system: M14 melanoma
MALME-3M melanoma = test system: MALME-3M melanoma
MCF7 breast = test system: MCF7 breast
MDA-MB-435 = test system: MDA-MB-435
MOLT-4 leukemia = test system: MOLT-4 leukemia
NCI-H23 lung = test system: NCI-H23 lung
NCI-H460 lung = test system: NCI-H460 lung
NCI/ADR-RES ovarian = test system: NCI/ADR-RES ovarian
OVCAR-4 ovarian = test system: OVCAR-4 ovarian
RPMI-8226 leukemia = test system: RPMI-8226 leukemia
RXF 393 renal = test system: RXF 393 renal
SF-268 CNS = test system: SF-268 CNS
SK-MEL-2 melanoma = test system: SK-MEL-2 melanoma
SK-MEL-28 melanoma = test system: SK-MEL-28 melanoma
SK-MEL-5 melanoma = test system: SK-MEL-5 melanoma
SK-OV-3 ovarian = test system: SK-OV-3 ovarian
SNB-75 CNS = test system: SNB-75 CNS
SR leukemia = test system: SR leukemia
SW-620 colon = test system: SW-620 colon
T-47D breast = test system: T-47D breast
U251 CNS = test system: U251 CNS
UACC-62 melanoma = test system: UACC-62 melanoma
A498 renal = test system: A498 renal
BT-549 breast = test system: BT-549 breast
DU-145 prostate = test system: DU-145 prostate
EKVX NSCLC = test system: EKVX NSCLC
HCC-2998 colon = test system: HCC-2998 colon
HCT-15 colon = test system: HCT-15 colon
HS 578T breast = test system: HS 578T breast
KM12 colon = test system: KM12 colon
LOX IMVI melanoma = test system: LOX IMVI melanoma
NCI-H226 lung = test system: NCI-H226 lung
NCI-H522 lung = test system: NCI-H522 lung
OVCAR-3 ovarian = test system: OVCAR-3 ovarian
OVCAR-5 ovarian = test system: OVCAR-5 ovarian
OVCAR-8 ovarian = test system: OVCAR-8 ovarian
SF-295 CNS = test system: SF-295 CNS
SF-539 CNS = test system: SF-539 CNS
TK-10 renal = test system: TK-10 renal
UACC-257 melanoma = test system: UACC-257 melanoma
UO-31 renal = test system: UO-31 renal

CCOC(=O)C1(C(=O)OCC)CCC(C(OC)OC)C(CC(=O)OC)C1 (centres undefined)
TGI (786-0 renal): > 10 µM | TGI (A549 NSCLC): > 10 µM | TGI (ACHN renal): > 10 µM | TGI (CAKI-1 renal): > 10 µM | TGI (CCRF-CEM leukemia): > 10 µM | TGI (COLO 205 colon): > 10 µM | TGI (HL-60(TB) leukemia): > 10 µM | TGI (HOP-62 NSCLC): > 10 µM | TGI (HOP-92 NSCLC): > 10 µM | TGI (IGROV1 ovarian): > 10 µM | TGI (K-562 leukemia): > 10 µM | TGI (M14 melanoma): > 10 µM | TGI (MALME-3M melanoma): > 10 µM | TGI (MCF7 breast): > 10 µM | TGI (MDA-MB-435): > 10 µM | TGI (MOLT-4 leukemia): > 10 µM | TGI (NCI-H23 lung): > 10 µM | TGI (NCI-H460 lung): > 10 µM | TGI (NCI/ADR-RES ovarian): > 10 µM | TGI (OVCAR-4 ovarian): > 10 µM | TGI (RPMI-8226 leukemia): > 10 µM | TGI (RXF 393 renal): > 10 µM | TGI (SF-268 CNS): > 10 µM | TGI (SK-MEL-2 melanoma): > 10 µM | TGI (SK-MEL-28 melanoma): > 10 µM | TGI (SK-MEL-5 melanoma): > 10 µM | TGI (SK-OV-3 ovarian): > 10 µM | TGI (SNB-75 CNS): > 10 µM | TGI (SR leukemia): > 10 µM | TGI (SW-620 colon): > 10 µM | TGI (T-47D breast): > 10 µM | TGI (U251 CNS): > 10 µM | TGI (UACC-62 melanoma): > 10 µM

O=c1c(-c2ccccc2)c(SCCN2CCCCCC2)n(-c2ccccc2)c(=S)n1-c1ccccc1
TGI (A498 renal): 56.7 µM | TGI (ACHN renal): > 100 µM | TGI (BT-549 breast): > 100 µM | TGI (CAKI-1 renal): 99.1 µM | TGI (CCRF-CEM leukemia): 29.4 µM | TGI (COLO 205 colon): > 100 µM | TGI (DU-145 prostate): 66.1 µM | TGI (EKVX NSCLC): 35.7 µM | TGI (HCC-2998 colon): 12.9 µM | TGI (HCT-15 colon): > 100 µM | TGI (HL-60(TB) leukemia): 46.9 µM | TGI (HOP-62 NSCLC): > 100 µM | TGI (HOP-92 NSCLC): > 100 µM | TGI (HS 578T breast): > 100 µM | TGI (IGROV1 ovarian): > 100 µM | TGI (K-562 leukemia): 93.9 µM | TGI (KM12 colon): > 100 µM | TGI (LOX IMVI melanoma): > 100 µM | TGI (MALME-3M melanoma): 49.3 µM | TGI (MCF7 breast): > 100 µM | TGI (MDA-MB-435): > 100 µM | TGI (MOLT-4 leukemia): 57.5 µM | TGI (NCI-H226 lung): > 100 µM | TGI (NCI-H23 lung): > 100 µM | TGI (NCI-H460 lung): > 100 µM | TGI (NCI-H522 lung): > 100 µM | TGI (NCI/ADR-RES ovarian): > 100 µM | TGI (OVCAR-3 ovarian): > 100 µM | TGI (OVCAR-4 ovarian): 53.6 µM | TGI (OVCAR-5 ovarian): 44.3 µM | TGI (OVCAR-8 ovarian): > 100 µM | TGI (RPMI-8226 leukemia): > 100 µM | TGI (RXF 393 renal): 98.6 µM | TGI (SF-295 CNS): > 100 µM | TGI (SF-539 CNS): > 100 µM | TGI (SK-MEL-28 melanoma): > 100 µM | TGI (SK-MEL-5 melanoma): > 100 µM | TGI (SK-OV-3 ovarian): > 100 µM | TGI (SNB-75 CNS): > 100 µM | TGI (SR leukemia): 84.5 µM | TGI (SW-620 colon): > 100 µM | TGI (TK-10 renal): > 100 µM | TGI (UACC-257 melanoma): > 100 µM | TGI (UACC-62 melanoma): > 100 µM

N=C(N)c1ccc(-c2ccc(-c3ccc(Cl)cc3Cl)o2)cc1
GI50 (ACHN renal): 1.68 µM | TGI (ACHN renal): 3.06 µM | GI50 (HS 578T breast): 2.13 µM | TGI (HS 578T breast): 4.99 µM | GI50 (MDA-MB-435): 1.7 µM | TGI (MDA-MB-435): 3.09 µM | GI50 (NCI-H226 lung): 1.82 µM | TGI (NCI-H226 lung): 4.28 µM | GI50 (OVCAR-5 ovarian): 1.53 µM | TGI (OVCAR-5 ovarian): 2.95 µM | GI50 (SF-268 CNS): 2.03 µM | TGI (SF-268 CNS): 4.65 µM | GI50 (SK-MEL-28 melanoma): 1.61 µM | TGI (SK-MEL-28 melanoma): 3.03 µM | GI50 (SK-MEL-5 melanoma): 1.74 µM | TGI (SK-MEL-5 melanoma): 3.13 µM | GI50 (SK-OV-3 ovarian): 1.62 µM | TGI (SK-OV-3 ovarian): 3.23 µM | GI50 (SNB-75 CNS): 1.4 µM | TGI (SNB-75 CNS): 2.73 µM | GI50 (UO-31 renal): 1.67 µM | TGI (UO-31 renal): 3.18 µM
